Read-outs that look alike come from different tables or passages of the source.
Assays:
[1] = Ascorbic acid electron scavenging assay (disappearance of nitroxide ESR signal); type: biochemical; details: 0.5 μM nitroxide, nitroxide ESR signal after 8.5 min; for Signal Decrease (%) (c): 1.12 mM ascorbate; for Signal Decrease (%) (a): 35 μM ascorbate; for Signal Decrease (%) (b): 280 μM ascorbate
Excerpt: In contrast to the DPPH assay, which mainly addresses the radical scavenging/reducing properties of nitroxides and hydroxylamines, the reaction of nitroxides with ascorbic acid benchmarks their ability to act as oxidizing agents in their conversion to hydroxylamines, which is important to their protective function as electron scavengers in the mitochondrial electron transport chain. The electron acceptor potentials of various nitroxides were thus benchmarked in the presence of low, medium, and high concentrations of the electron donor ascorbate (Table 3). ESR was used to detect the characteristic triplet of the nitroxide vs the doublet of ascorbate radicals (see supplementary information), and the disappearance of the former and appearance of the latter was measured over 8.5 min.

[2] = tested on: Ercc1^−/− MEFs; assay: Cell proliferation / rescue of oxidative-stress-induced senescence in Ercc1−/− MEFs; type: cell-based; details: for EC50: read-out: Cell proliferation EC50
Excerpt: Cell survival in irradiation studies depends on complex biochemical pathways, possibly accounting for the complex correlation of nitroxide structure and radiation mitigation properties. Irradiation-induced cell death results from an accumulation of events that individually are not able to kill the cell, but which become lethal when added together. To develop a firmer basis for studying structural modifications, we assayed the ability to rescue cellular senescence induced by oxidative stress in Ercc1^−/− MEFs as a function of test agents (Table 5).
Ercc1^−/− MEFs completely lack a critical DNA repair factor, making these cells highly sensitive to genotoxic and oxidative stress. Growth of the Ercc1^−/− MEFs in 20% 02 results in cellular senescence as measured by senescence associated β-gal, γ-H2AX staining and p16 protein levels. The ability to rescue senescence, as measured by an increase in cell number, correlates with the inhibition of oxidative stress.

[3] = DPPH radical scavenging assay; type: biochemical; details: for EC50: EtOH, 100 μM DPPH, 30 min at 37° C.
Excerpt: The free radical reduction abilities of the nitroxides and nitroxide-conjugates were benchmarked by the DPPH (2,2-diphenyl-1-picrylhydrazyl) assay.

[4] = Stability of the free nitroxide on storage; type: physicochemical; details: after removal of the Boc group; storage at rt
Excerpt: Preparation of 3-amino-ABNO (12) was envisioned from the known ketone 21, which was easily accessible in one step from acetonedicarboxylic acid and glutaraldehyde (Scheme 1). Conversion of 21 to oxime 22, followed by reduction to the amine with nickel boride and N-Boc protection provided carbamate 23 in high yield. Removal of the benzyl group by catalytic hydrogenolysis and oxidation of the free secondary amine in the presence of urea-hydrogen peroxide complex (UHP) furnished the Boc-protected nitroxide 24.
A mixture of Boc-protected amine 3-Boc-amino-ABNO (24, 200 mg, 0.783 mmol) in a 4.0 N solution of HCl in 1,4-dioxane (3.3 mL, 13.2 mmol) was stirred at 0° C. for 1 h and at rt for an additional 2 h. The suspension was then filtered and the solid rinsed with cold dry Et2O, to give 167 mg of an off-white powder. It was dissolved in a minimum of 2.5 N aq. NaOH, and extracted with warm CHCl3 (7×). The combined organic layers were dried (K2CO3), filtered and concentrated in vacuo to afford 110 mg (90%) of a red oil. Upon high vacuum and/or storage at rt for not more than 1 h, the product started to loose the red color characteristic for a nitroxide and became pale yellow. Thus, the title compound is unstable.

[5] = tested on: 32Dcl3 murine hematopoietic cells; assay: Irradiation survival assay (colony formation) in 32Dcl3 cells; type: cell-based; details: for Do, before irradiation / ñ, before irradiation: 10 μM nitroxide for 1 h before irradiation, 0 to 8 Gy; for Do, before irradiation / ñ, before irradiation / Do, after irradiation / ñ, after irradiation: colonies after 7 d; for Do, after irradiation / ñ, after irradiation: cells irradiated, then placed in media containing 10 μM nitroxide; for protection of cells from irradiation (in words): given 1 h before irradiation, shown by increased D0
Excerpt: Irradiation survival assays were used to test the ability of selected nitroxide-conjugates to protect against, or mitigate, irradiation-induced damage of 32Dcl3 murine hematopoietic cells.

5-amino-TMIO [Compound 8]
Signal Decrease (%) (c) [1]: 40.3% | EC50 ([2]; Ercc1−/− MEFs, 20% O2): < 1 nM

6-Boc-amino-1-Me-AZADO [Compound 32]
Signal Decrease (%) (a) [1]: 100% | Signal Decrease (%) (b) [1]: 100% | DPPH radical scavenging activity (in words) [3]: slightly higher EC50 values than their corresponding nitroxide substructures | EC50 ([2]; Ercc1−/− MEFs, 20% O2): 62.2 nM

O=C1O[C@H]([C@@H](O)CO)C(O)=C1O [Ascorbic acid, reference compound]
EC50 [3]: 28000 ± 5000 nM

CC(C)C[C@@H](/C=C/CC(=O)NC1CC(C)(C)N([O])C(C)(C)C1)NC(=O)OCc1ccccc1 [Compound 1]
EC50 ([2]; Ercc1−/− MEFs, 20% O2): 589 nM

CC(C)C[C@H](NC(=O)OC(C)(C)C)[C@@H]1C[C@H]1CC(=O)NC1CC(C)(C)N([O])C(C)(C)C1 [Compound 2]
EC50 ([2]; Ercc1−/− MEFs, 20% O2): 332 nM

CC(C)C[C@@H](/C=C/CC(=O)NC1CC(C)(C)N([O])C(C)(C)C1)NP(=O)(c1ccccc1)c1ccccc1 [Compound 3]
EC50 [2]: 70.4 nM

CC(C)C[C@H](NC(=O)OCc1ccccc1)[C@@H]1C[C@H]1CC(=O)NC1CC(C)(C)N([O])C(C)(C)C1 [Compound 4]
EC50 ([2]; Ercc1−/− MEFs, 20% O2): 231 nM

CC(C)C[C@H](/C=C/CC(=O)NC1CC(C)(C)N([O])C(C)(C)C1)NC(=O)OC(C)(C)C [Compound 5]
EC50 [2]: 200 nM

CC(C)C[C@@H](/C=C/C(F)(F)C(=O)NC1CC(C)(C)N([O])C(C)(C)C1)NC(=O)OC(C)(C)C [Compound 6]
Signal Decrease (%) (a) [1]: 58.4% | Signal Decrease (%) (b) [1]: 94.1% | EC50 [2]: 7.6 ± 1.4 nM

CC1(C)c2ccc(N)cc2C(C)(C)N1O [Compound 8-H]
EC50 [3]: 169000 ± 7000 nM

CC1(C)CC(O)CC(C)(C)N1[O] [Compound 9, 4-hydroxy-2,2,6,6-tetramethylpiperidine-N-oxyl, reference compound]
Signal Decrease (%) (a) [1]: 35.7% | Signal Decrease (%) (b) [1]: 81% | Signal Decrease (%) (c) [1]: 100% | EC50 [2]: 229 ± 23.9 nM

N[C@@H]1CC2CCC[C@@H](C1)N2[O] [Compound 12, 3-Amino-9-azabicyclo[3.3.1]nonane N-oxyl]
stability (in words) [4]: unstable

CC(C)C[C@@H](/C=C/CC(=O)Nc1ccc2c(c1)C(C)(C)N([O])C2(C)C)NC(=O)OC(C)(C)C [Compound 20]
Signal Decrease (%) (b) [1]: 15.5% | Signal Decrease (%) (c) [1]: 77.4% | DPPH radical scavenging activity (in words) [3]: slightly higher EC50 values than their corresponding nitroxide substructures | Do, before irradiation [5]: 1.8 ± 0.1 Gy | ñ, before irradiation [5]: 1.0 ± 0.1 | Do, after irradiation [5]: 1.4 ± 0.1 Gy | ñ, after irradiation [5]: 2.4 ± 0.2 | protection of cells from irradiation (in words) [5]: able to protect cells from multiple killing events | EC50 ([2]; Ercc1−/− MEFs, 20% O2): 17.6 ± 1.4 nM

CC(C)(C)OC(=O)NC1CC2CCCC(C1)N2O (stereo not shown) [Compound 24, 3-(tert-Butoxycarbonylamino)-9-azabicyclo[3.3.1]nonane N-oxyl]
Signal Decrease (%) (a) [1]: 100% | Signal Decrease (%) (b) [1]: 100% | EC50 ([2]; Ercc1−/− MEFs, 20% O2): 40 nM

CC(C)C[C@@H](/C=C/CC(=O)N[C@@H]1CC2CCC[C@@H](C1)N2[O])NC(=O)OC(C)(C)C [Compound 26, (S,E)-N-(9-Azabicyclo[3.3.1]nonan-9-oxo-3-yl)-5-(tert-butoxycarbonylamino)-7-methyloct-3-enamide]
Signal Decrease (%) (a) [1]: 100% | Signal Decrease (%) (b) [1]: 100% | DPPH radical scavenging activity (in words) [3]: slightly higher EC50 values than their corresponding nitroxide substructures | Do, before irradiation [5]: 3.1 ± 0.6 Gy | ñ, before irradiation [5]: 1.0 ± 0.1 | Do, after irradiation [5]: 1.3 ± 0.1 Gy | ñ, after irradiation [5]: 2.7 ± 0.7 | protection of cells from irradiation (in words) [5]: able to protect cells from multiple killing events | EC50 ([2]; Ercc1−/− MEFs, 20% O2): 11.8 ± 2.7 nM

CC(C)C[C@@H](/C=C/CC(=O)NC1[C@@H]2CC3C[C@H]1C[C@](C)(C2)N3[O])NC(=O)OC(C)(C)C (stereo partly shown) [Compound 33]
Do, before irradiation [5]: 2.6 ± 0.4 Gy | ñ, before irradiation [5]: 1.0 ± 0.1 | Do, after irradiation [5]: 1.3 ± 0.1 Gy | ñ, after irradiation [5]: 2.5 ± 0.3 | protection of cells from irradiation (in words) [5]: able to protect cells from multiple killing events | EC50 ([2]; Ercc1−/− MEFs, 20% O2): 5.3 ± 0.5 nM

COc1cc(/C=C/C(=O)CC(=O)/C=C/c2ccc(O)c(OC)c2)ccc1O [Curcumin, reference compound]
EC50 ([2]; Ercc1−/− MEFs, 20% O2): 1000 nM | rescue of senescence (in words) ([2]; used as negative control): only very weak effects

CC(C)C[C@@H](/C=C/CC(=O)NC1CC(C)(C)N([O])C(C)(C)C1)NC(=O)OC(C)(C)C [JP4-039]
Signal Decrease (%) (a) [1]: 29.7% | Signal Decrease (%) (b) [1]: 81.4% | DPPH radical scavenging activity (in words) [3]: did not exhibit any significant activity | Do, before irradiation [5]: 2.3 ± 0.3 Gy | ñ, before irradiation [5]: 1.0 ± 0.1 | Do, after irradiation [5]: 1.2 ± 0.1 Gy | ñ, after irradiation [5]: 3.5 ± 0.2 | protection of cells from irradiation (in words) [5]: able to protect cells from multiple killing events | EC50 [2]: 210 ± 15.2 nM

CC1(C)CCCC(C)(C)N1O [TEMPO-H, reference compound]
EC50 [3]: 79000 ± 2000 nM

CC(C)C[C@@H](/C=C/[C@H](Cc1ccccc1)C(=O)N1CCC[C@H]1C(=O)N[C@H](C(=O)N[C@@H](CCCNC(=O)OCc1ccccc1)C(=O)NC1CC(C)(C)N([O])C(C)(C)C1)C(C)C)NC(=O)OC(C)(C)C [XJB-5-131]
Signal Decrease (%) (a) [1]: 76.7% | Signal Decrease (%) (b) [1]: 92.4% | DPPH radical scavenging activity (in words) [3]: did not exhibit any significant activity | EC50 ([2]; Ercc1−/− MEFs, 20% O2): 212 ± 5.1 nM
